In patent US9271987B2, “Methods and compositions for treating Alzheimer's disease” (Cold Spring Harbor Laboratory, priority 2011, dated 2016):
Entries after “also recorded” stand apart in the source; their conditions may differ.

Tests used:
[1] = system: Aβ42-expressing flies (elav-Gal4/Y; UAS-Aβ42/+); experiment: Pavlovian olfactory associative immediate memory in Aβ42-expressing flies after drug feeding
Procedure: Flies were raised and maintained at room temperature (22-24° C.).

[2] = system: Tg(APPswe.PSEN1dE9) double transgenic mice; experiment: Morris water maze in AD-model double transgenic mice; type: in vivo, mouse; conditions: for Rescue of memory loss in Morris water maze: 8-month-old mice, lavage once daily from 9 days before training until end of experiments (18 days)
human EGFR = target: T1, human EGFR (Homo sapiens, UniProt P00533); experiment: p-EGFR level in COS-7 cells transfected with human EGFR wt (Western blot); type: cell-based; conditions: 15 min; for Level of p-EGFR or activated EGFR after Aβ42 application: 25 μg/ml Aβ42 preparation
T1 construct: expressed in transfected cells; host or cells: COS-7 (monkey kidney), Lipofectamine 2000, plasmid from Dr. Parsons

[3] = EGFR inhibitor 0.01, 0.1, 1, 10 μg/ml, fed 4 hours each day for 7 days, 10-day-old Aβ42-expressing males

Level of p-EGFR or activated EGFR after Aβ42 application (human EGFR) | Compound | Aβ42-induced memory loss (immediate memory) [1, 3] | Rescue of memory loss in Morris water maze [2] | other results
 | C#Cc1cccc(Nc2ncnc3cc(OCCOC)c(OCCOC)cc23)c1 [Er, N-(3-ethynylphenyl)-6,7-bis(2-methoxyethoxy)quinazolin-4-amine] | prevented the memory loss |  | 
 | COc1cc2ncnc(Nc3ccc(F)c(Cl)c3)c2cc1OCCCN1CCOCC1 [Ge, N-(3-chloro-4-fluoro-phenyl)-7-methoxy-6-(3-morpholin-4-ylpropoxy)quinazolin-4-amine] | prevented the memory loss | sufficient to rescue the memory loss; also recorded: rescuing effects were observed | Effect of two-month drug feeding on memory loss ([2]; drug feeding from 6- to 8-month-old): produced a positive effect
 | CC12CC3CC(C)(C1)CC(N)(C3)C2 [memantine] |  | unable to improve the memory-loss phenotype | Aβ42-induced memory loss (immediate memory) ([1]; memantine 20 μg/ml, fed 4 hours each day for 7 consecutive days, memory at day 10 post-eclosion, male flies): capable of preventing the memory loss; Rescue of memory loss in Morris water maze ([2]; listed as Mem): No improvement in memory; Rescue of memory loss in Morris water maze ([2]; listed as momentine): had no effect
significantly elevated | Aβ42 from oligomeric preparation: Synthetic and recombinant wild type Aβ42 (AnaSpec) incubated at 4° C. for 24 h to form oligomers |  |  | Expression levels of EGFRs after Aβ42 application (human EGFR; 25 μg/ml Aβ42 from oligomeric preparation): not affected
opposite effect | monomeric Aβ42 preparation: Aβ42 peptide preparation abundant in monomers |  |  | 
